Source: patent publication US7982043B2, “Protein tyrosine kinase enzyme inhibitors” (Wyeth LLC, priority 2003, dated 2011)
Values after ≈ are worked out from the molar mass of the structure shown. Read-outs that look alike come from different tables or passages of the source.

Legend:
Format in all cases: cell-based
[1] = test system: SW620 cells; assay: Cell proliferation assay (SRB), SW620; settings: EGFR −, Her-2 −, 2 days, SRB; for IC50: Homo sapiens, SW-620, 48 h, read-out: CELL IC50 SW620
[2] = test system: SK-Br-3 cells; assay: Cell proliferation assay (SRB), SK-Br-3; settings: EGFR −, Her-2 +++, 2 days, SRB; for IC50: Homo sapiens, SK-BR-3, 48 h, read-out: CELL IC50 SKBr3
[3] = molecular target: mouse fibroblast cell line transfected with the HER-2 oncogene (3T3/neu) (UniProt P04626, cells depend on it, species not given); assay: Cell proliferation assay (SRB), 3T3/neu; settings: for GI50: read-out: CELL IC50 3T3/NEU (converted)
[4] = test system: MDA-MB-435 cells; assay: Cell proliferation assay (SRB), MDA-MB-435; settings: EGFR −, Her-2 −, 2 days, SRB; for IC50: Homo sapiens, MDA-MB-435, 48 h, read-out: CELL IC50 MDA-MB-435
[5] = test system: A431 cells; assay: Cell proliferation assay (SRB), A431; settings: for IC50: Homo sapiens, A-431, 48 h, read-out: CELL IC50 A431

SMILES	CELL IC50 SW620 [1] [µg/mL]	CELL IC50 SKBr3 [2] [µg/mL]	CELL IC50 MDA-MB-435 [4] [µg/mL]	CELL IC50 A431 ([5]; EGFR +++, Her-2 +, 2 days, SRB) [µg/mL]	CELL IC50 3T3/NEU ([3]; EGFR −, Her-2 +++, 2 days, SRB) [µg/mL]	IC50 [1] [µg/mL]	IC50 [2] [µg/mL]	GI50 ([3]; EGFR −, Her-2 +++, 2 days, SRB) [nM]	IC50 [4] [µg/mL]	IC50 ([5]; EGFR +++, Her-2 +, 2 days, SRB) [µg/mL]	CELL IC50 3T3/NEU ([3]; mouse fibroblast cell line transfected with the her-2 oncogene (3t3/neu)) [µg/mL]	IC50 [5] [µg/mL]
COc1cc2ncc(C#N)c(Nc3ccc(Sc4nc5ccccc5c(=O)[nH]4)c(Cl)c3)c2cc1NC(=O)/C=C/CN(C)C [Example 46]	>5	0.06	>5	0.34							0.15	
CCOc1cc2ncc(C#N)c(Nc3ccc(Nc4nnc(C(F)(F)F)s4)c(Cl)c3)c2cc1NC(=O)/C=C/CN(C)C [Example 53, (E)-N-[4-(3-chloro-4-{[5-(trifluoromethyl)-1,3,4-thiadiazol-2-yl]amino}anilino)-3-cyano-7-ethoxy-6-quinolinyl]-4-(dimethylamino)-2-butenamide]						1.05 (≈ 1.7 µM)	0.179 (≈ 0.29 µM)	1440	0.95 (≈ 1.54 µM)	0.728 (≈ 1.18 µM)		
CCOc1cc2ncc(C#N)c(Nc3ccc(Oc4ccncc4)c(Cl)c3)c2cc1NC(=O)/C=C/CN(C)C [Example 56, (E)-N-{4-[3-chloro-4-(4-pyridinyloxy)anilino]-3-cyano-7-ethoxy-6-quinolinyl}-4-(dimethylamino)-2-butenamide]						> 5	1.51 (≈ 2.78 µM)	> 9210	2.06 (≈ 3.79 µM)			3.27 (≈ 6.02 µM)
CCOc1cc2ncc(C#N)c(Nc3ccc(Nc4nnc(C(F)(F)F)s4)c(Cl)c3)c2cc1N [Example 59, 6-amino-4-(3-chloro-4-{[5-(trifluoromethyl)-1,3,4-thiadiazol-2-yl]amino}anilino)-7-ethoxy-3-quinolinecarbonitrile]						1.38 (≈ 2.73 µM)	0.551 (≈ 1.09 µM)	> 9880	0.91 (≈ 1.8 µM)	> 5		
CCOc1cc2ncc(C#N)c(Nc3ccc(Cn4ccnc4)c(Cl)c3)c2cc1NC(=O)/C=C/CN(C)C [Example 62, (E)-N-{4-[3-chloro-4-(1H-imidazol-1-ylmethyl)anilino]-3-cyano-7-ethoxy-6-quinolinyl}-4-(dimethylamino)-2-butenamide]						3.8 (≈ 7.17 µM)	0.045 (≈ 0.0849 µM)	1870	2.1 (≈ 3.96 µM)			0.95 (≈ 1.79 µM)
CCOc1cc2ncc(C#N)c(Nc3ccc(Sc4nccc(C)n4)c(Cl)c3)c2cc1N [Example 64, 6-amino-4-{3-chloro-4-[(4-methyl-2-pyrimidinyl)sulfanyl]anilino}-7-ethoxy-3-quinolinecarbonitrile]						2 (≈ 4.32 µM)	> 5	6540	1.8 (≈ 3.89 µM)	1.53 (≈ 3.3 µM)		
CCOc1cc2ncc(C#N)c(Nc3ccc(Sc4nccc(C)n4)c(Cl)c3)c2cc1NC(=O)/C=C/CN(C)C [Example 65, (E)-N-(4-{3-chloro-4-[(4-methyl-2-pyrimidinyl)sulfanyl]anilino}-3-cyano-7-ethoxy-6-quinolinyl)-4-(dimethylamino)-2-butenamide]						0.2 (≈ 0.348 µM)	0.001 (≈ 0.00174 µM)	5.23	0.3 (≈ 0.523 µM)	0.12 (≈ 0.209 µM)		
CCOc1cc2ncc(C#N)c(Nc3ccc(Sc4nc(C)cc(C)n4)c(Cl)c3)c2cc1NC(=O)/C=C/CN(C)C [Example 66, (E)-N-(4-{3-chloro-4-[(4,6-dimethyl-2-pyrimidinyl)sulfanyl]anilino}-3-cyano-7-ethoxy-6-quinolinyl)-4-(dimethylamino)-2-butenamide]						0.32 (≈ 0.544 µM)	0.006 (≈ 0.0102 µM)	17	0.2 (≈ 0.34 µM)	0.24 (≈ 0.408 µM)		
CCOc1cc2ncc(C#N)c(Nc3ccc(Sc4nc(-c5ccccc5)cs4)c(C(F)(F)F)c3)c2cc1N [Example 68, 6-Amino-7-ethoxy-4-[4-(4-phenyl-thiazol-2-ylsulfanyl)-3-trifluoromethyl-phenylamino]-quinoline-3-carbonitrile]						3.1 (≈ 5.5 µM)	0.943 (≈ 1.67 µM)	4470	2.5 (≈ 4.44 µM)	> 5		
CCOc1cc2ncc(C#N)c(Nc3ccc(Sc4nc(-c5ccccc5)cs4)c(C(F)(F)F)c3)c2cc1NC(=O)/C=C/CN(C)C [Example 69, (E)-N-{3-cyano-7-ethoxy-4-[4-[(4-phenyl-1,3-thiazol-2-yl)sulfanyl]-3-(trifluoromethyl)anilino]-6-quinolinyl}-4-(dimethylamino)-2-butenamide]						0.6 (≈ 0.889 µM)	> 5	622	0.3 (≈ 0.445 µM)	0.3 (≈ 0.445 µM)		
COc1cc2ncc(C#N)c(Nc3ccc(Sc4ncc(-c5ccccc5)s4)c(Cl)c3)c2cc1NC(=O)/C=C/CN(C)C [Example 70, (E)-N-(4-{3-chloro-4-[(5-phenyl-1,3-thiazol-2-yl)sulfanyl]anilino}-3-cyano-7-methoxy-6-quinolinyl)-4-(dimethylamino)-2-butenamide]						0.5 (≈ 0.797 µM)	0.01 (≈ 0.0159 µM)	191	0.08 (≈ 0.128 µM)	0.22 (≈ 0.351 µM)		
COCCN(C)C/C=C/C(=O)Nc1cc2c(Nc3ccc(Sc4nccs4)c(Cl)c3)c(C#N)cnc2cc1OC [Example 71, (E)-N-{4-[3-chloro-4-(1,3-thiazol-2-ylsulfanyl)anilino]-3-cyano-7-methoxy-6-quinolinyl}-4-[(2-methoxyethyl)(methyl)amino]-2-butenamide]						0.4 (≈ 0.672 µM)	0.002 (≈ 0.00336 µM)	3.36	0.09 (≈ 0.151 µM)	0.03 (≈ 0.0504 µM)		

Second part, led by results:

CELL IC50 SW620 [1] [µg/mL]	CELL IC50 SKBr3 [2] [µg/mL]	CELL IC50 MDA-MB-435 [4] [µg/mL]	CELL IC50 A431 ([5]; EGFR +++, Her-2 +, 2 days, SRB) [µg/mL]	CELL IC50 3T3/NEU ([3]; EGFR −, Her-2 +++, 2 days, SRB) [µg/mL]	IC50 [1] [µg/mL]	IC50 [2] [µg/mL]	GI50 ([3]; EGFR −, Her-2 +++, 2 days, SRB) [nM]	IC50 [4] [µg/mL]	IC50 ([5]; EGFR +++, Her-2 +, 2 days, SRB) [µg/mL]	SMILES	CELL IC50 3T3/NEU ([3]; mouse fibroblast cell line transfected with the her-2 oncogene (3t3/neu)) [µg/mL]	IC50 [5] [µg/mL]
1.64	>5	1.16	0.646	>5						COc1cc2ncc(C#N)c(Nc3ccc(N(Cc4cccnc4)C(C)=O)c(Cl)c3)c2cc1NC(=O)/C=C/CN(C)C [Example 47]		
2.57	0.68	2.61	1.6	1.79						COc1cc2ncc(C#N)c(Nc3ccc(N(Cc4cccnc4)C(C)=O)c(Cl)c3)c2cc1[N+](=O)[O-] [Example 48]		
>5	3.41	3.76	>5	2.4						COc1cc2ncc(C#N)c(Nc3ccc(N(Cc4cccnc4)C(C)=O)c(Cl)c3)c2cc1N [Example 49]		
>5	3.94	>5	3.68	>5						COc1cc2ncc(C#N)c(Nc3ccc(N(Cc4cccnc4)C(C)=O)c(Cl)c3)c2cc1NC(C)=O [Example 50]		
					2.54 (≈ 4.74 µM)	1.22 (≈ 2.28 µM)	3530	1.84 (≈ 3.43 µM)	1.79 (≈ 3.34 µM)	CCOc1cc2ncc(C#N)c(Nc3ccc(Nc4nnc(C(F)(F)F)s4)c(Cl)c3)c2cc1[N+](=O)[O-] [Example 52, 4-(3-chloro-4-{[5-(trifluoromethyl)-1,3,4-thiadiazol-2-yl]amino}anilino)-7-ethoxy-6-nitro-3-quinolinecarbonitrile]		
					> 5	> 5	> 10800	2.54 (≈ 5.5 µM)	> 5	CCOc1cc2ncc(C#N)c(Nc3ccc(Oc4ccncc4)c(Cl)c3)c2cc1[N+](=O)[O-] [Example 54, 4-[3-chloro-4-(4-pyridinyloxy)anilino]-7-ethoxy-6-nitro-3-quinolinecarbonitrile]		
					> 5	> 5	> 11600	1.61 (≈ 3.73 µM)	> 5	CCOc1cc2ncc(C#N)c(Nc3ccc(Oc4ccncc4)c(Cl)c3)c2cc1N [Example 55, 6-amino-4-[3-chloro-4-(4-pyridinyloxy)anilino]-7-ethoxy-3-quinolinecarbonitrile]		
					3.21 (≈ 6.96 µM)	0.726 (≈ 1.58 µM)	8740	1.87 (≈ 4.06 µM)	1.6 (≈ 3.47 µM)	COc1cc2ncc(C#N)c(Nc3ccc(NCc4cccnc4)c(Cl)c3)c2cc1[N+](=O)[O-] [Example 57, 4-{3-chloro-4-[(3-pyridinylmethyl)amino]anilino}-7-methoxy-6-nitro-3-quinolinecarbonitrile]		
					> 5	2.44 (≈ 5.44 µM)	> 11100	> 5	> 5	CCOc1cc2ncc(C#N)c(Nc3ccc(Cn4ccnc4)c(Cl)c3)c2cc1[N+](=O)[O-] [Example 60, 4-[3-chloro-4-(1H-imidazol-1-ylmethyl)anilino]-7-ethoxy-6-nitro-3-quinolinecarbonitrile]		
					> 5	0.75 (≈ 1.79 µM)	> 11900	> 5	> 5	CCOc1cc2ncc(C#N)c(Nc3ccc(Cn4ccnc4)c(Cl)c3)c2cc1N [Example 61, 6-amino-4-[3-chloro-4-(1H-imidazol-1-ylmethyl)anilino]-7-ethoxy-3-quinolinecarbonitrile]		
					0.9 (≈ 1.83 µM)	0.45 (≈ 0.913 µM)	3020	1.3 (≈ 2.64 µM)	1.2 (≈ 2.43 µM)	CCOc1cc2ncc(C#N)c(Nc3ccc(Sc4nccc(C)n4)c(Cl)c3)c2cc1[N+](=O)[O-] [Example 63, 4-{3-chloro-4-[(4-methyl-2-pyrimidinyl)sulfanyl]anilino}-7-ethoxy-6-nitro-3-quinolinecarbonitrile]		
					0.4 (≈ 0.674 µM)	0.268 (≈ 0.451 µM)	1150	0.4 (≈ 0.674 µM)	0.76 (≈ 1.28 µM)	CCOc1cc2ncc(C#N)c(Nc3ccc(Sc4nc(-c5ccccc5)cs4)c(C(F)(F)F)c3)c2cc1[N+](=O)[O-] [Example 67, 7-ethoxy-6-nitro-4-[4-[(4-phenyl-1,3-thiazol-2-yl)sulfanyl]-3-(trifluoromethyl)anilino]-3-quinolinecarbonitrile]		
